In assay [1] the test system is GH release induced by 1 nM hGH-RH(1-29)NH2 in superfused rat pituitary cells. The experiment in a line: Inhibition of hGH-RH(1-29)NH2-induced GH release in superfused rat pituitary system. The format is cell-based. The following applies: 30 nM peptide; for Inhibition of GH release (%) 0 min: 0 min response; for Inhibition of GH release (%) 30 min: 30 min response; for Inhibition of GH release (%) 60 min: 60 min response; for Inhibition of GH release (%) 90 min: 90 min response; for Inhibition of GH release (%) 120 min: 120 min response. The procedure: Superfused Rat Pituitary System. The analogues were tested in vitro in a test described earlier (S. Vigh and A. V. Schally, Peptides 5:241-[…], 1984) with modification (Z. Rekasi and A. V. Schally, P. N. A. S. 90:2146-2149, 1993).
Briefly, the cells are preincubated with peptides for 9 minutes (3 mL) at various concentrations. Immediately after the incubation, 1 nM hGH-RH(1-29)NH2 is administered for 3 minutes (1 mL) [0 minute response]. To check the duration of the antagonistic effect of the analogue, 1 nM hGH-RH(1-29)NH2 is applied 30, 60, 90, and 120 minutes later for 3 minutes [30, 60, 90, 120 min responses]. Net integral values of the GH responses are evaluated. GH responses are compared to and expressed as percent of the original GH response induced by 1 nM GH-RH(1-29)NH2. The effect of the new antagonists are compared to that of [Ac-Tyr^1,D-Arg^2 ]hGH-RH(1-29)NH2, the "Standard antagonist".
Growth Hormone Radio-immunoassay. Rat GH levels in aliquots of undiluted and diluted superfusion samples were measured by double-antibody radioimmunoassay using materials supplied by the National Hormone and Pituitary Program, Baltimore, Md. The results of RIA were analyzed with a computer program developed in our institute (V. Csernus and A. V. Schally, Harwood Academic (Greenstein, B. C. ed., London, pp. 71-109, 1991), hereby incorporated by reference. Inter-assay variation was less than 15% and intra-assay variation was less than 10%.

The target in assay [2] is T1, rat pituitary GH-RH receptors (Rattus norvegicus, UniProt Q02644).
T1 construct: from tissue; host or cells: anterior pituitary of male Sprague-Dawley rats, crude membranes
T1 sequence (Q02644 23-464): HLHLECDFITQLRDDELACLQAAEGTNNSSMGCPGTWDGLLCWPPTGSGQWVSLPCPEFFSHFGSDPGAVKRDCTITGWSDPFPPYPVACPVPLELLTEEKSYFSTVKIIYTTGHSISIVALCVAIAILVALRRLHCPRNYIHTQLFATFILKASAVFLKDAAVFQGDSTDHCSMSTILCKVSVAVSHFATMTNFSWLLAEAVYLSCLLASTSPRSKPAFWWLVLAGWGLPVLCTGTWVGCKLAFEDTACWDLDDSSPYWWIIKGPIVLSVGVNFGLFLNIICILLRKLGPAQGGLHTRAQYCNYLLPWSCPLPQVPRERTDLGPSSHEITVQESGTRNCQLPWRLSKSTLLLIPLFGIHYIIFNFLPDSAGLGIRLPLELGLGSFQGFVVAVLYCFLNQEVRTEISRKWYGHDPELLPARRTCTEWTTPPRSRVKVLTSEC
The assay can be described thus: GH-RH radioreceptor binding assay, competition with labelled [His1,Nle27]hGH-RH(1-32)NH2. The conditions noted are these: rat anterior pituitary membrane homogenates; read-out: Ki values, K. On the procedure: GH-RH Binding Assay. A sensitive radioreceptor binding assay was developed to determine the binding characteristics of the antagonists of GH-RH (G. Halmos, A. V. Schally et al., Receptor 3, 87-97, 1993), hereby incorporated by reference. The assay is based on binding of labelled [His^1, Nle^27 ]hGH-RH(1-32)NH2 to rat anterior pituitary membrane homogenates. Iodinated derivatives of [His^1, Nle^27 ]hGH-RH(1-32)NH2 are prepared by the chloramine-T method (F. C. Greenwood et al., Biochemistry 89:114-123, 1963), hereby incorporated by reference. Pituitaries from male Sprague-Dawley rats (250-300 g) are used to prepare crude membranes. For saturation binding analyses, membrane homogenates are incubated with at least 6 concentrations of [His^1,125I-Tyr^10,Nle^27 ]hGH-RH(1-32)NH2, ranging from 0.005 to 0.35 nM in the presence or absence of excess unlabelled peptide (1 μM).
The pellet is counted for radioactivity in a γ-counter. The affinities of the antagonist peptides tested to rat pituitary GH-RH receptors are determined in competitive binding experiments. The final binding affinities are estimated by Ki (dissociation constant of the inhibitor-receptor complex) and are determined by the Ligand PC computer program of Munson and Rodbard as modified by McPherson. Relative affinities compared to [Ac-Tyr^1, D-Arg^2 ]hGH-RH(1-29)NH2, the Standard antagonist, are calculated as the ratio of Ki of the tested GH-RH antagonist to the Ki of the Standard antagonist.

The record followed here is US5942489A, “HGH-RH(1-29)NH2 analogues having antagonistic activity” (The Administrators of the Tulane Educational Fund, priority 1996, dated 1999).

Where a SMILES comes first, the peptide text is derived from it. Bridges are numbered along the chain shown (N, C = ends). [ ]: non-standard residue; d: D form. The star is where a group is joined. Phe(4-Cl) = N[C@@H](Cc1ccc(Cl)cc1)C(=O)O; 2Nal = N[C@@H](Cc1ccc2ccccc2c1)C(=O)O; Agmatine = N=C(N)NCCCCN*; Nle = CCCC[C@H](N)C(=O)O; Orn = NCCC[C@H](N)C(=O)O; Abu = CC[C@H](N)C(=O)O; PhAc = O=C(Cc1ccccc1)*

By Ki is commonly meant the dissociation constant of the complex between target and ligand, obtained from inhibition or displacement.

On to `CCCC[C@@H]1NC(=O)[C@H]([C@@H](C)CC)NC(=O)[C@H](NC(=O)[C@H](CCC(N)=O)NC(=O)[C@H](CC(C)C)NC(=O)[C@H](CC(C)C)NC(=O)[C@H](CCCCN)NC(=O)[C@H](CCCNC(=N)N)NC(=O)[C@H](C)NC(=O)[C@H](CO)NC(=O)[C@H](CC(C)C)NC(=O)[C@H](CCC(N)=O)NC(=O)[C@H](C)NC(=O)[C@H](CC(C)C)NC(=O)[C@@H](NC(=O)[C@H](CCCCN)NC(=O)[C@H](CCCNC(=N)N)NC(=O)[C@H](Cc2ccc(O)cc2)NC(=O)[C@H](CO)NC(=O)[C@H](CC)NC(=O)[C@@H](NC(=O)[C@H](Cc2ccc3ccccc3c2)NC(=O)[C@@H](NC(=O)[C@H](C)NC(=O)[C@H](CC(=O)O)NC(=O)[C@@H](CCCNC(=N)N)NC(=O)[C@H](Cc2ccc(O)cc2)NC(=O)Cc2ccccc2)[C@@H](C)CC)[C@@H](C)O)C(C)C)CC(=O)NCCC[C@@H](C(N)=O)NC(=O)[C@H](CO)NC1=O` [Peptide 20, cyclo^25,29 [PhAc^0,D-Arg^2,Nal^6,Abu^8,Ala^15,D-Asp^25,Nle^27,Orn^29]hGH-RH(1-29)NH2] (PhAc-Y[dR]DAI[2Nal]T[Abu]SYRKVLAQLSARKLLQ[dD]I[Nle]S[Orn]-NH2; lactam 25-29), for which, in assay [1], the “Inhibition of GH release (%) 0 min” value was 11.0%, the “Inhibition of GH release (%) 30 min” value worked out at 0.0%, the “Inhibition of GH release (%) 60 min” value is 0.0% and the “Inhibition of GH release (%) 90 min” value was 13.0%.

With `CCCC[C@H](NC(=O)[C@@H](NC(=O)[C@H](CC(=O)O)NC(=O)[C@H](CCC(N)=O)NC(=O)[C@H](CC(C)C)NC(=O)[C@H](CC(C)C)NC(=O)[C@H](CCCCN)NC(=O)[C@H](CCCNC(=N)N)NC(=O)[C@H](C)NC(=O)[C@H](CO)NC(=O)[C@H](CC(C)C)NC(=O)[C@H](CCC(N)=O)NC(=O)[C@H](C)NC(=O)[C@H](CC(C)C)NC(=O)[C@@H](NC(=O)[C@H](CCCCN)NC(=O)[C@H](CCCNC(=N)N)NC(=O)[C@H](Cc1ccc(O)cc1)NC(=O)[C@H](CO)NC(=O)[C@H](CC(N)=O)NC(=O)[C@@H](NC(=O)[C@H](Cc1ccc(Cl)cc1)NC(=O)[C@@H](NC(=O)[C@H](C)NC(=O)[C@H](CC(=O)O)NC(=O)[C@@H](CCCNC(=N)N)NC(=O)[C@H](Cc1ccc(O)cc1)NC(=O)Cc1ccccc1)[C@@H](C)CC)[C@@H](C)O)C(C)C)[C@@H](C)CC)C(=O)N[C@@H](CC(=O)O)C(=O)NCCCCNC(=N)N` [Peptide 5, [PhAc^0,D-Arg^2,Phe(pCl)^6,Ala^15,Nle^27,Asp^28]hGH-RH(1-28)Agm] (PhAc-Y[dR]DAI[Phe(4-Cl)]TNSYRKVLAQLSARKLLQDI[Nle]D-Agmatine), the Ki in assay [2] came to 0.096 nM.

Take `CCCC[C@H](NC(=O)[C@@H](NC(=O)[C@H](CC(=O)O)NC(=O)[C@H](CCC(N)=O)NC(=O)[C@H](CC(C)C)NC(=O)[C@H](CC(C)C)NC(=O)[C@@H]1CCCCNC(=O)CC[C@H](NC(=O)[C@H](CCC(N)=O)NC(=O)[C@H](C)NC(=O)[C@H](CC(C)C)NC(=O)[C@@H](NC(=O)[C@H](CCCCN)NC(=O)[C@H](CCCNC(=N)N)NC(=O)[C@H](Cc2ccc(O)cc2)NC(=O)[C@H](CO)NC(=O)[C@H](CO)NC(=O)[C@@H](NC(=O)[C@H](Cc2ccc(Cl)cc2)NC(=O)[C@@H](NC(=O)[C@H](C)NC(=O)[C@H](CC(=O)O)NC(=O)[C@@H](CCCNC(=N)N)NC(=O)[C@H](Cc2ccc(O)cc2)NC(=O)Cc2ccccc2)[C@@H](C)CC)[C@@H](C)O)C(C)C)C(=O)N[C@@H](CO)C(=O)N[C@@H](C)C(=O)N[C@@H](CCCNC(=N)N)C(=O)N1)[C@@H](C)CC)C(=O)N[C@@H](CO)C(=O)N[C@@H](CCCNC(=N)N)C(N)=O` [Peptide 18, cyclo^17,21 [PhAc^0,D-Arg^2,Phe(pCl)^6,Ser^8,Ala^15,Glu^17,Nle^27]hGH-RH(1-29)NH2] (PhAc-Y[dR]DAI[Phe(4-Cl)]TSSYRKVLAQESARKLLQDI[Nle]SR-NH2; lactam 17-21): the Ki in assay [2] turned out to be 0.159 ± 0.04 nM.

`CCCC[C@H](NC(=O)[C@@H](NC(=O)[C@@H]1CCC(=O)NCCCC[C@H](NC(=O)[C@H](CCCNC(=N)N)NC(=O)[C@H](C)NC(=O)[C@H](CO)NC(=O)[C@H](CC(C)C)NC(=O)[C@H](CCC(N)=O)NC(=O)[C@H](C)NC(=O)[C@H](CC(C)C)NC(=O)[C@@H](NC(=O)[C@H]2CCCCNC(=O)CC[C@H](NC(=O)[C@@H](NC(=O)[C@H](Cc3ccc(Cl)cc3)NC(=O)[C@@H](NC(=O)[C@H](C)NC(=O)[C@H](CC(=O)O)NC(=O)[C@@H](CCCNC(=N)N)NC(=O)[C@H](Cc3ccc(O)cc3)NC(=O)Cc3ccccc3)[C@@H](C)CC)[C@@H](C)O)C(=O)N[C@@H](CO)C(=O)N[C@@H](Cc3ccc(O)cc3)C(=O)N[C@@H](CCCNC(=N)N)C(=O)N2)C(C)C)C(=O)N[C@@H](CC(C)C)C(=O)N[C@@H](CC(C)C)C(=O)N[C@@H](CCC(N)=O)C(=O)N1)[C@@H](C)CC)C(=O)N[C@@H](CO)C(=O)N[C@@H](CCCNC(=N)N)C(N)=O` [Peptide 23, cyclo^8,12; 21,25 [[PhAc^0,D-Arg^2,Phe(pCl)^6,Glu^8,25,D-Lys^12,Ala^15,Nle^27]hGH-RH(1-29)-NH2] (PhAc-Y[dR]DAI[Phe(4-Cl)]TESYR[dK]VLAQLSARKLLQEI[Nle]SR-NH2; lactam 8-12, 21-25): the Ki in assay [2] is 0.456 nM.

In the case of “[PhAc^0,Tyr(Me),D-Arg^2,Phe(pCl)^6,Ala^15,Nle^27 ]hGH-RH(1-29)-NH2 [Peptide 10]”, in assay [1], the “Inhibition of GH release (%) 0 min” value was 84.8%, the “Inhibition of GH release (%) 30 min” value was 35.2%, the “Inhibition of GH release (%) 60 min” value came to 38.2% and the “Inhibition of GH release (%) 90 min” value stood at 29.8%. The “Inhibition of GH release (%) 120 min” value in assay [1] stood at 33.8%.

Take `CCCC[C@H](NC(=O)[C@@H](NC(=O)[C@H](CC(=O)O)NC(=O)[C@H](CCC(N)=O)NC(=O)[C@H](CC(C)C)NC(=O)[C@H](CC(C)C)NC(=O)[C@H](CCCCN)NC(=O)[C@H](CCCNC(=N)N)NC(=O)[C@H](C)NC(=O)[C@H](CO)NC(=O)[C@H](CC(C)C)NC(=O)[C@H](CCC(N)=O)NC(=O)[C@H](C)NC(=O)[C@H](CC(C)C)NC(=O)[C@@H](NC(=O)[C@H](CCCCN)NC(=O)[C@H](CCCNC(=N)N)NC(=O)[C@H](Cc1ccc(O)cc1)NC(=O)[C@H](CO)NC(=O)[C@H](CC)NC(=O)[C@@H](NC(=O)[C@H](Cc1ccc2ccccc2c1)NC(=O)[C@@H](NC(=O)[C@H](C)NC(=O)[C@H](CC(=O)O)NC(=O)[C@@H](CCCNC(=N)N)NC(=O)[C@H](Cc1ccc(O)cc1)NC(=O)Cc1ccccc1)[C@@H](C)CC)[C@@H](C)O)C(C)C)[C@@H](C)CC)C(=O)N[C@@H](CC)C(=O)N[C@@H](CCCNC(=N)N)C(N)=O` [Peptide 12, [PhAc^0,D-Arg^2,Nal^6,Abu^8,28,Ala^15,Nle^27]hGH-RH(1-29)NH2] (PhAc-Y[dR]DAI[2Nal]T[Abu]SYRKVLAQLSARKLLQDI[Nle][Abu]R-NH2): in assay [1], the “Inhibition of GH release (%) 0 min” value came to 87.0%, the “Inhibition of GH release (%) 30 min” value stood at 61.0%, the “Inhibition of GH release (%) 60 min” value is reported as 37.0% and the “Inhibition of GH release (%) 90 min” value is 34.0%. For the same compound, in assay [1], the “Inhibition of GH release (%) 120 min” value is 41.0%.
